Laboratory results taken from patent US20220162192A1 (ESCAPE Bio, Inc., priority 2019, published 2022).
Where two headings read alike, the source gives them in different places.

Key:
[1] = biological target: T1, Recombinant G2019S-LRRK2 protein (Homo sapiens, UniProt Q5S007, G2019S); test: LanthaScreen Kinase Activity Assay (TR-FRET), G2019S-LRRK2; type: biochemical; conditions: class symbols; 25 μM ATP, 400 nM LRRKtide, 2.9 nM kinase, 60 min at room temperature
T1 construct: purchased Life Technologies PV4881
T1 sequence (Q5S007 whole entry G2019S): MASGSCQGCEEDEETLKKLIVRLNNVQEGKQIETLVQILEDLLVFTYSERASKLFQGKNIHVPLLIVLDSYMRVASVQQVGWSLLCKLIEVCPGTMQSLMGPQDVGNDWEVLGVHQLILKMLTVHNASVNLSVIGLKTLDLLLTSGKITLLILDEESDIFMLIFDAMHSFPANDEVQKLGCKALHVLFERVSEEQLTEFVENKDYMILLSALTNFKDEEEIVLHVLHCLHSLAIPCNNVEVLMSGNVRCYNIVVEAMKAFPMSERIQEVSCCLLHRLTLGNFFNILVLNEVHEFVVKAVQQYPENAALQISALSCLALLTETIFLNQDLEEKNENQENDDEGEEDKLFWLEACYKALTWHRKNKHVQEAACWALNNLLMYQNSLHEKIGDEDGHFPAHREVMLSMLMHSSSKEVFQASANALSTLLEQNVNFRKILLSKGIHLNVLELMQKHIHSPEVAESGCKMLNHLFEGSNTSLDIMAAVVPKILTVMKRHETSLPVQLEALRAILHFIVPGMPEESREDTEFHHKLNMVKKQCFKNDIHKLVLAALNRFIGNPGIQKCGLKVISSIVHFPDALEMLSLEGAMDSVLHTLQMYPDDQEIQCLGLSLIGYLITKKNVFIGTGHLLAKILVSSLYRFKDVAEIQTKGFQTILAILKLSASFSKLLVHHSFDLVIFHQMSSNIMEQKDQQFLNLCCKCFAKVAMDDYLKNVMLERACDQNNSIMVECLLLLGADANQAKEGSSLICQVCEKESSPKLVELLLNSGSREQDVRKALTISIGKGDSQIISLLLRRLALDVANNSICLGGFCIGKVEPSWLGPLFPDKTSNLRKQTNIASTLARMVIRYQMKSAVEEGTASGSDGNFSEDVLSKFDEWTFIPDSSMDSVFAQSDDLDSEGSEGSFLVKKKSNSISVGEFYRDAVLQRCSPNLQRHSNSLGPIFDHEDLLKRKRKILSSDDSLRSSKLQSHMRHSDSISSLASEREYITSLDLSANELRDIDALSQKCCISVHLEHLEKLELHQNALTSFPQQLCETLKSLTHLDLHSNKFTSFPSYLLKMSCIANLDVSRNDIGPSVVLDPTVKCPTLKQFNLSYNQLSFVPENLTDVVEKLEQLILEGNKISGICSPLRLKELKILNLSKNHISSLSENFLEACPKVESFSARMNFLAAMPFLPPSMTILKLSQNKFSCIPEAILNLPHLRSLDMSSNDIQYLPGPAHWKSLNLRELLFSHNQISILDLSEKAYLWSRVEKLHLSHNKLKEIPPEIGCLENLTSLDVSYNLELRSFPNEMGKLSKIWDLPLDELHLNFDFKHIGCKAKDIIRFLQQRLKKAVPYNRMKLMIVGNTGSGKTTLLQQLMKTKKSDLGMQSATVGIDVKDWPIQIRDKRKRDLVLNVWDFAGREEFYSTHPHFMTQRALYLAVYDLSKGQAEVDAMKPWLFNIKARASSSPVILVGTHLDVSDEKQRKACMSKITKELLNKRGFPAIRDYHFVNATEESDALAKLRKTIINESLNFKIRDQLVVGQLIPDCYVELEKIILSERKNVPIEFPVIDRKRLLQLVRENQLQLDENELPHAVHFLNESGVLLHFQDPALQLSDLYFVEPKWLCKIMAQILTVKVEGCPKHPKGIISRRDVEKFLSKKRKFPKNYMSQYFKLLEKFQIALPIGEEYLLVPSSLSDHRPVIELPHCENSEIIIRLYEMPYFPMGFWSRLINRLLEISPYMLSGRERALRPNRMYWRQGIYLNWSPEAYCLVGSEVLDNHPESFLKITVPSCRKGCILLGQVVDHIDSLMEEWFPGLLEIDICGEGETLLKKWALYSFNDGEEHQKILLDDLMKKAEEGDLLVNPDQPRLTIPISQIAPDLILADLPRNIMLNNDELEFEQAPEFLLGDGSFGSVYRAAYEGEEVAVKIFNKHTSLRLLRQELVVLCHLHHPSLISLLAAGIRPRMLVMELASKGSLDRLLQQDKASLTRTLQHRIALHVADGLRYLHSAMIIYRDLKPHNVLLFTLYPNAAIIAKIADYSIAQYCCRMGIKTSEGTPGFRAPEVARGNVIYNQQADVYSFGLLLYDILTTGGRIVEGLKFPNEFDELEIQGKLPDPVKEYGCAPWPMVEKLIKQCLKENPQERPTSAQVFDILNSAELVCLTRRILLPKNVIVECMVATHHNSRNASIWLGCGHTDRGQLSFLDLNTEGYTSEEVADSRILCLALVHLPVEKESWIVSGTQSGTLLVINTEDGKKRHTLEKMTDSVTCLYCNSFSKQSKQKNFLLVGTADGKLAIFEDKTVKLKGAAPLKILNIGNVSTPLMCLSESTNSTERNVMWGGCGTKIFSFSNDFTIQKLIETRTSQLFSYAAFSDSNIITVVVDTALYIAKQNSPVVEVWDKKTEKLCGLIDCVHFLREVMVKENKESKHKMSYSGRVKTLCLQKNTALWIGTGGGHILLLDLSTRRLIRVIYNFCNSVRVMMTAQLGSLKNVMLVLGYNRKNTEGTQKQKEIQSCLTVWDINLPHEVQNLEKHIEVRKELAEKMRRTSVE
Summary of the method: (§1)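 Recombinant wild-type or G2019S LRRK2 (2.9 nM final) phosphorylated fluorescein-LRRKtide (400 nM) with 25 μM ATP in 50 mM Tris pH 8.5, 5 mM MgCl2, 1 mM EGTA, 0.01% Brij-35, 2 mM DTT for 60 min at RT. After EDTA stop, Tb-anti-pERM TR-FRET (520/495 nm ratio) was read. IC50 values came from 11-point, 3-fold compound dilutions.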

[2] = biological target: T2, Recombinant wild type LRRK2 protein (Homo sapiens, UniProt Q5S007); test: LanthaScreen Kinase Activity Assay (TR-FRET), wild type LRRK2; type: biochemical; conditions: 25 μM ATP, 400 nM LRRKtide, 2.9 nM kinase, 60 min at room temperature, read-out: LRRK2 WT IC50
T2 construct: purchased Life Technologies PR8604B
T2 sequence (Q5S007 whole entry): as the sequence (Q5S007 whole entry G2019S) above, with S2019G counted along it
Summary of the method: as §1

[3] = numeric bound instead of class symbol

Row | SMILES | IC50 [1] [nM] | IC50 ([2]; class symbols) [nM] | IC50 [2, 3] [nM]
1 | Cc1cc(-c2n[nH]c3ccc(NC(=O)c4c(F)cc5c(cnn5C)c4F)cc23)n(C)n1 [Example 79, N-(3-(1,3-Dimethyl-1H-pyrazol-5-yl)-1H-indazol-5-yl)-4,6-difluoro-1-methyl-1H-indazole-5-carboxamide] | 100 to 1000 | 1000 to 10000 | 
2 | Cc1nn(C)cc1-c1n[nH]c2ccc(NC(=O)c3c(F)cc4c(cnn4C)c3F)cc12 [Example 80, N-(3-(1,3-Dimethyl-1H-pyrazol-4-yl)-1H-indazol-5-yl)-4,6-difluoro-1-methyl-1H-indazole-5-carboxamide] | ≤ 100 | ≤ 100 | 
3 | CC1(C)c2nncn2CCN1C(=O)Nc1ccc2[nH]nc(-c3ccoc3)c2c1 [Example 172, N-(3-(Furan-3-yl)-1H-indazol-5-yl)-8,8-dimethyl-5,6-dihydro-[1,2,4]triazolo[4,3-a]pyrazine-7(8H)-carboxamide] | 100 to 1000 | 100 to 1000 | 
4 | Cc1cc2cnnn2c(C)c1C(=O)Nc1ccc2[nH]nc(-c3ccccc3)c2c1 [Example 48, 5,7-Dimethyl-N-(3-phenyl-1H-indazol-5-yl)-[1,2,3]triazolo[1,5-a]pyridine-6-carboxamide] | ≤ 100 | ≤ 100 | 
5 | Cc1ccc(-c2n[nH]c3ccc(NC(=O)c4c(F)cc5c(cnn5C)c4F)cc23)s1 [Example 97, 4,6-Difluoro-1-methyl-N-(3-(5-methylthiophen-2-yl)-1H-indazol-5-yl)-1H-indazole-5-carboxamide] | ≤ 100 | ≤ 100 | 
6 | Cc1ccccc1-c1n[nH]c2ccc(NC(=O)c3c(F)cc4c(cnn4C)c3F)cc12 [Example 77, 4,6-Difluoro-1-methyl-N-(3-(o-tolyl)-1H-indazol-5-yl)-1H-indazole-5-carboxamide] | 1000 to 10000 | 1000 to 10000 | 
7 | O=C(Nc1ccc2[nH]nc(-c3ccoc3)c2c1)c1nc2cnccc2s1 [Example 170, N-(3-(Furan-3-yl)-1H-indazol-5-yl)thiazolo[4,5-c]pyridine-2-carboxamide] | ≤ 100 | 100 to 1000 | 
8 | Cc1n[nH]c2ccc(NC(=O)c3ccc4nn[nH]c4c3)cc12 [Example 9, N-(3-Methyl-1H-indazol-5-yl)-1H-benzo[d][1,2,3]triazole-6-carboxamide] | 1000 to 10000 | 1000 to 10000 | 
9 | COc1cncc(-c2n[nH]c3ccc(NC(=O)c4c(F)cc5c(cnn5C)c4F)cc23)c1 [Example 82, 4,6-Difluoro-N-(3-(5-methoxypyridin-3-yl)-1H-indazol-5-yl)-1-methyl-1H-indazole-5-carboxamide] | ≤ 100 | ≤ 100 | 
10 | Cc1cn2nc(C(=O)Nc3ccc4[nH]nc(-c5ccoc5)c4c3)cc2c(C)n1 [Example 163, N-(3-(Furan-3-yl)-1H-indazol-5-yl)-4,6-dimethylpyrazolo[1,5-a]pyrazine-2-carboxamide] | ≤ 100 | ≤ 100 | 
11 | Cc1c(C(=O)Nc2ccc3[nH]nc(-c4ccoc4)c3c2)cnc2cncn12 [Example 113, N-(3-(Furan-3-yl)-1H-indazol-5-yl)-4-methylimidazo[1,5-a]pyrimidine-3-carboxamide] | ≤ 100 | ≤ 100 | 
12 | Cn1ncc2c(F)c(C(=O)Nc3ccc4[nH]nc(-c5ncco5)c4c3)c(F)cc21 [Example 138, 4,6-Difluoro-1-methyl-N-(3-(oxazol-2-yl)-1H-indazol-5-yl)-1H-indazole-5-carboxamide] | ≤ 100 | 100 to 1000 | 
13 | O=C(Nc1ccc2[nH]nc(-c3ccoc3)c2c1)C1CCc2cncn2C1 (single isomer, unassigned) [Example 173a] | ≤ 100 | 100 to 1000 | 
14 | O=C(Nc1ccc2[nH]nc(-c3ccoc3)c2c1)c1ccn2ccnc2c1 [Example 118, N-(3-(Furan-3-yl)-1H-indazol-5-yl)imidazo[1,2-a]pyridine-7-carboxamide] | 100 to 1000 | 100 to 1000 | 
15 | O=C(Nc1ccc2[nH]nc(-c3ccoc3)c2c1)c1cc2ncccc2s1 [Example 125, N-(3-(Furan-3-yl)-1H-indazol-5-yl)thieno[3,2-b]pyridine-2-carboxamide] | ≤ 100 | 100 to 1000 | 
16 | Cc1cc2cncn2cc1C(=O)Nc1ccc2[nH]nc(C)c2c1 [Example 145, 7-Methyl-N-(3-methyl-1H-indazol-5-yl)imidazo[1,5-a]pyridine-6-carboxamide] | ≤ 100 | 100 to 1000 | 
17 | Cn1cc(-c2n[nH]c3ccc(NC(=O)c4c(F)cc5c(cnn5C)c4F)cc23)cn1 [Example 35, 4,6-Difluoro-1-methyl-N-(3-(1-methyl-1H-pyrazol-4-yl)-1H-indazol-5-yl)-1H-indazole-5-carboxamide] | ≤ 100 | ≤ 100 | 
18 | Cc1cc(C(=O)Nc2ccc3[nH]nc(-c4ccncc4)c3c2)cc2nn[nH]c12 [Example 13, 7-Methyl-N-(3-(pyridin-4-yl)-1H-indazol-5-yl)-1H-benzo[d][1,2,3]triazole-5-carboxamide] | 100 to 1000 | 100 to 1000 | 
19 | Cn1ncc2c(F)c(C(=O)Nc3ccc4[nH]nc(-c5ccoc5)c4c3)c(F)cc21 [Example 28, 4,6-Difluoro-N-(3-(furan-3-yl)-1H-indazol-5-yl)-1-methyl-1H-indazole-5-carboxamide] | ≤ 100 | ≤ 100 | 
20 | Cn1ncc2c(F)c(C(=O)Nc3ccc4[nH]nc(N5CCC5)c4c3)c(F)cc21 [Example 139, N-(3-(Azetidin-1-yl)-1H-indazol-5-yl)-4,6-difluoro-1-methyl-1H-indazole-5-carboxamide] | 100 to 1000 | 1000 to 10000 | 
21 | Cn1ncc2c(F)c(C(=O)Nc3ccc4[nH]nc(-c5ccccc5C#N)c4c3)c(F)cc21 [Example 74, N-(3-(2-Cyanophenyl)-1H-indazol-5-yl)-4,6-difluoro-1-methyl-1H-indazole-5-carboxamide] | 100 to 1000 |  | > 10000
22 | Cc1c(C(=O)Nc2ccc3[nH]nc(-c4cnco4)c3c2)ncc2c1cnn2C [Example 169, 1,4-Dimethyl-N-(3-(oxazol-5-yl)-1H-indazol-5-yl)-1H-pyrazolo[3,4-c]pyridine-5-carboxamide] | ≤ 100 | 100 to 1000 | 
23 | Cn1ncc2c(F)c(C(=O)Nc3ccc4[nH]nc(-c5ccccc5F)c4c3)c(F)cc21 [Example 78, 4,6-Difluoro-N-(3-(2-fluorophenyl)-1H-indazol-5-yl)-1-methyl-1H-indazole-5-carboxamide] | ≤ 100 | 100 to 1000 | 
24 | Cc1cc2cc[nH]c2cc1C(=O)Nc1ccc2[nH]nc(-c3ccccc3)c2c1 [Example 22, 5-Methyl-N-(3-phenyl-1H-indazol-5-yl)-1H-indole-6-carboxamide] | 100 to 1000 | 1000 to 10000 | 
25 | O=C(Nc1ccc2[nH]nc(-c3ccoc3)c2c1)c1ccn2nccc2n1 [Example 127, N-(3-(Furan-3-yl)-1H-indazol-5-yl)pyrazolo[1,5-a]pyrimidine-5-carboxamide] | ≤ 100 | 100 to 1000 | 
26 | Cc1cnccc1-c1n[nH]c2ccc(NC(=O)c3c(F)cc4c(cnn4C)c3F)cc12 [Example 40, 4,6-Difluoro-1-methyl-N-(3-(3-methylpyridin-4-yl)-1H-indazol-5-yl)-1H-indazole-5-carboxamide] | 100 to 1000 | 1000 to 10000 | 
27 | Cn1ncc2c(F)c(C(=O)Nc3ccc4[nH]nc(N5CC(C(=O)O)C5)c4c3)c(F)cc21 [Example 142, 1-(5-(4,6-difluoro-1-methyl-1H-indazole-5-carboxamido)-1H-indazol-3-yl)azetidine-3-carboxylic acid] | 1000 to 10000 |  | > 10000
